Results from paper PMC7937321 (Genes and Environment, 2021).
Entries after “also recorded” stand apart in the source; their conditions may differ. Read-outs that look alike come from different tables or passages of the source.

Tests used:
[1] = system: L5178Y mouse lymphoma cells; design: key to MLA (TK gene locus), Without S9 / MLA (TK gene locus), With S9: Positive; Negative; details: cited from earlier work
[2] = system: 3-D reconstituted human skin cells; design: method as in PMID 32152633; details: ref [10], [11]; cited from earlier work
mammalian cells = system: mammalian cells; design: method as in PMID 32152633; details: ref [10], [11]; cited from earlier work
[3] = system: TA1538, TA100, TA98, TA97, TA1535; details: cited from earlier work; for Bacterial reverse mutation assay, With S9 / Bacterial reverse mutation assay, Without S9: ref [18]-[40], Table 2
rodent [4] = details: cited from earlier work
[5] = system: human lymphoblastoid TK6 cells, thymidine kinase gene
Procedure: (§1) In principle, this collaborative study conducted the treatment of test substances, the dose finding, and the main test of TK6 assays, according to the OECD Guideline TG490 [17]. […] Briefly, test substances were dissolved in an appropriate solvent (DMSO or ethanol) and then serially diluted to prepare final concentrations. […] The 4 h and 24 h treatments were conducted by shaking and static exposures, respectively. After treatment with test substances, cells were centrifuged (1000 rpm, 5 min), supernatants were removed, and cells were washed with a serum-free medium or Hank’s Balanced Salt Solution. After centrifugation (1000 rpm, 5 min) to remove the supernatant, cells (2 × 10^7 cells) were dispersed in an RPMI medium containing 10% serum, and cell concentration was measured. Treated cells were cultured at 37 °C with 5% CO2 condition and used for TK6 assays. At that time, to calculate the cloning efficiency (CE) (Eq. 1), the cells were cultured in a 96-well microplate at a concentration of about 1.6 cells/well for 2 weeks.
(§2) The TK6 assay is conducted between 20 and 10% RS0 as a maximum dose if cytotoxicity is observed. If no precipitate or limiting cytotoxicity was observed, the maximum dose was the lowest concentration among 10 mM, 2 mg/mL, or 2 μL/mL of the test substance. When the main TK6 assay was difficult to conduct under the condition of RS0 values from 20 to 10%, the test was conducted between 20 and 10% relative total growth (RTG), described later, as a maximum dose.
(§3) On the third day of culture, CE3 plates for determining plating efficiency and mutant frequency (MF) plates for mutation detection were prepared. CE3 plates were seeded in 96-well microplates at a concentration of about 1.6 cells/well. The MF plates were seeded in 96-well microplates at 40,000 cells/well in the presence of 3 μg/mL of trifluorothymidine (Sigma Aldrich).
(§4) Mutant colonies in MF plates were calculated using Eq. 7 using the Poisson distribution. EW was the number of wells without colonies, and TW was the total number of wells. N was the average number of cells per well (N = 40,000 in this study). The data were statistically analyzed by Omori’s method, a modified Dunnett’s procedure for identifying clear negatives, a Simpson–Margolin procedure for detecting downturn data, and a trend test to evaluate the dose dependency [42, 43]. The acceptability criterion for the test was that the MF value of the positive control group of each laboratory was increased with statistical significance compared with that of the concurrent negative control group.

rodent [6] = details: cited from earlier work; for Carcinogenicity Studies: rodent, ref [20]-[41], Table 2; for carcinogenicity: report of the National Toxicology Program, ref [24]
[7] = system: human lymphoblastoid TK6 cells, thymidine kinase gene; design: method as in PMID 2184322; details: 96 h of exposure, absence of S9; ref [67]; cited from earlier work
livers of rats = details: ref [74]; cited from earlier work
LacI transgenic mice = details: ref [77]; cited from earlier work
TK6 cells [8] = details: human
rats [9] = details: cited from earlier work
mouse organs = details: ref [80]; cited from earlier work
[10] = system: human lymphoblastoid TK6 cells, thymidine kinase gene; experiment: TK gene mutation assay (TK6 assay, OECD TG490); details: for TK6 assay overall judgment: all treatments; for TK mutation assay, With S9 / TK mutation assay, Without S9: short-term 4 h; for TK mutation assay, With S9: with rat liver S9
Procedure: as §1, §2, §3, §4

gpt transgenic rats = system: gpt transgenic rats; design: method as in PMID 20026473, doi:10.3123/jemsge.34.25; details: ref [23], [78]; cited from earlier work
rats [11] = details: ref [75]; cited from earlier work
TK6 cells [12] = experiment: Cytotoxicity in the TK6 assay (CE, RS, RSG, RTG)
human lymphocytes = system: human lymphocytes; design: method as in PMID 22539226; details: in vitro; ref [6]; cited from earlier work
mice = system: mice; design: method as in PMID 22539226; details: ref [6]; cited from earlier work
in vitro = details: human
[13] = chromosomal Aberration test, micronucleus test, transgenic rodent gene mutation assay, ref [48], [58]–[63]
[14] = Short-term treatment with metabolic activation
[15] = Short-term treatment without metabolic activation

Structure (SMILES): C[N+](C)(C)c1ccc2ccc(O)c(N=Nc3ccc(N)c([N+](=O)[O-])c3)c2c1.[Cl-] [Basic Brown 17]
- mutation assays using mouse lymphoma ([1]; two loci of TK and HPRT, ref [10], [11]): negative
- comet assay with 3-D reconstituted human skin cells [2]: negative
- in vitro micronucleus test using mammalian cells (mammalian cells): negative
- Ames test ([3]; ref [10], [11]): positive

Structure (SMILES): Oc1cccc2cccnc12 [8-Hydroxyquinoline]
- in vivo genotoxicity tests (rodent [4]; [13]): negative
- MLA (TK gene locus), Without S9 ([1]; ref [27], [46]-[53], Table 3): Pos
- TK mutation assay, With S9 [5]: Pos
- TK mutation assay, Without S9 [5]: Neg
- Trend test, test statistic ([5]; human): 4.896 / 1.645 / p < 0.05
- Carcinogenicity Studies (rodent [6]): Neg
- The Highest Specific Activity and the Strain ([3]; TA97 with S9, ref [28]): 21,400 revertants/mg
- The Highest Specific Activity and the Strain ([3]; TA100 with S9, ref Table 2): 16,000 revertants/mg
- specific activity values obtained from Ames test ([3]; ref Table 2): exceeding 10,000 revertants per milligram
- Bacterial reverse mutation assay, With S9 [3]: Pos
- Bacterial reverse mutation assay, Without S9 [3]: Neg

Structure (SMILES): Nc1ccc(-c2ccc(N)cc2)cc1 [benzidine]
- Mutagenicity in human TK6 cells [7]: Mutagenicity was confirmed

Structure (SMILES): Cc1ccc(N)cc1N [2,4-Diaminotoluene, reference compound]
- DNA adducts in the livers of rats (livers of rats): Significant DNA adducts were detected
- carcinogenicity (rodent [6]): carcinogenic

Structure (SMILES): Cc1c(N)cccc1N [2,6-Diaminotoluene]
- in vivo genotoxicity tests (rodent [4]; [13]): negative
- mutagenicity in MLA using L5178Y mouse lymphoma cells ([1]; 4 h, −S9, ref [68]): occurs
- MLA (TK gene locus), Without S9 ([1]; ref [27], [46]-[53], Table 3): Pos
- DNA adducts in the livers of rats (livers of rats): marginal amount of adducts
- mutagenic assay with LacI transgenic mice (LacI transgenic mice): negative
- cytotoxicity (TK6 cells [8]): More than 80%
- UDS assay (rats [9]; high dose, ref [79]): positive
- unscheduled DNA synthesis (UDS) assay in rats (rats [9]; ref [76]): negative
- comet assay of various mouse organs (mouse organs): negative
- carcinogenicity (rodent [6]): non-carcinogenic
- Carcinogenicity Studies (rodent [6]): Neg
- TK6 assay result (mutant frequency increase, judgment) ([10]; 4h treatment (+S9)): Statistically significant increases of MF; also recorded: mutagenic
- TK6 assay result (mutant frequency increase, judgment) ([10]; 4h treatment (-S9)): negative
- TK mutation assay, Long term ([10]; 24 h, without S9): Pos
- TK6 assay result (mutant frequency increase, judgment) ([10]; 24h treatment (-S9)): Statistically significant increases of MF; also recorded: positive; also recorded: mutagenic
- TK6 assay overall judgment [10]: positive
- TK mutation assay, With S9 [10]: Pos
- TK mutation assay, Without S9 ([10]; without S9): Neg
- gpt mutagenic assay with transgenic rats (gpt transgenic rats): negative
- The Highest Specific Activity and the Strain ([3]; TA100 with S9, ref Table 2): 1703 revertants/mg in TA100 with S9
- Bacterial reverse mutation assay, With S9 [3]: Pos
- Bacterial reverse mutation assay, Without S9 [3]: Neg
- hepatocellular proliferation in rats (rats [11]): negative

Structure (SMILES): Cl.ClCc1ccccn1 [2-(Chloromethyl) pyridine HCl]
- cytotoxicity (relative colony efficiency) (TK6 cells [12]; 60 μg/mL, absence of S9, short-term): About 80%
- cytotoxicity (relative colony efficiency) (TK6 cells [12]; 100 μg/mL, presence of S9, short-term): About 80%
- in vivo genotoxicity tests (rodent [4]; in vivo): negative
- MLA (TK gene locus), With S9 ([1]; with S9, ref [27], [46]-[53], Table 3): Pos
- MLA (TK gene locus), Without S9 ([1]; ref [27], [46]-[53], Table 3): Pos
- Carcinogenicity Studies (rodent [6]): Neg
- TK6 assay result (mutant frequency increase, judgment) ([10]; 4h treatment (+S9)): clear concentration-dependent increase of MF
- TK6 assay result (mutant frequency increase, judgment) ([10]; 4h treatment (-S9)): clear concentration-dependent increase of MF
- Dunnett type test, test statistic [10, 14]: 5.868
- Trend test, test statistic [10, 14]: 3.912
- Dunnett type test, test statistic [10, 15]: 5.268
- Trend test, test statistic [10, 15]: 3.417
- TK6 assay overall judgment [10]: positive
- TK mutation assay, With S9 [10]: Pos
- TK mutation assay, Without S9 ([10]; without S9): Pos
- The Highest Specific Activity and the Strain ([3]; TA100 with S9, ref Table 2): 98.6 revertants/mg in TA100 with S9
- Bacterial reverse mutation assay, With S9 [3]: Pos
- Bacterial reverse mutation assay, Without S9 [3]: Pos

Structure (SMILES): CSc1ccc(OCc2ncc([N+](=O)[O-])n2C)cc1 [fexinidazole, reference compound]
- micronucleus test in human lymphocytes (human lymphocytes): negative
- ex vivo unscheduled DNA synthesis in rats (rats [9]; ref [6]): negative
- bone marrow micronucleus test in mice (mice): negative
- Ames test ([3]; ref [6]): positive

Structure (SMILES): COS(C)(=O)=O [MMS, methyl methanesulfonate]
- viability at 4 h, 3 μg/mL (in vitro; CE0 (%), cell viability on Day 0): 27.3%
- viability at 4 h, 3 μg/mL (in vitro; CE3 (%), cell viability on Day 3): 70.6%
- CE0 (%) (TK6 cells [8]; 4 h, 3 μg/mL): 48.8%
- CE0 (%), cell viability on Day 0 (TK6 cells [8]; 4 h, 3 μg/mL): 38.3%
- CE3 (%) (TK6 cells [8]; 4 h, 3 μg/mL): 56.3%
- CE3 (%), cell viability on Day 3 (TK6 cells [8]; 4 h, 3 μg/mL): 54.7%
- Daily cell growth Day 1×2×3 (TK6 cells [8]; 4 h, 3 μg/mL): 8.36
- Adjusted CE0 (TK6 cells [8]; 4 h, 5 μg/mL): 30.4%
- CE0 (TK6 cells [8]; 4 h, 5 μg/mL): 32.6%
- Daily cell growth Day 1×2×3 (TK6 cells [8]; 4 h, 5 μg/mL): 7.40
- RS (TK6 cells [8]; 4 h, 5 μg/mL): 35.0
- RS0 (TK6 cells [8]; 4 h, 5 μg/mL): 35.0%
- RSG (TK6 cells [8]; 4 h, 5 μg/mL): 0.357
- Adjusted CE0(%) (TK6 cells [8]; 24 h, 1 μg/mL): 133.2%
- CE0 (%) (TK6 cells [8]; 24 h, 1 μg/mL): 63.1%
- CE3 (TK6 cells [8]; 24 h, 1 μg/mL): 0.866
- CE3 (%) (TK6 cells [8]; 24 h, 1 μg/mL): 86.6%
- Daily cell growth Day 1×2×3 (TK6 cells [8]; 24 h, 1 μg/mL): 15.58
- RS0 (%) (TK6 cells [8]; 24 h, 1 μg/mL): 59.4%
- RSG (TK6 cells [8]; 24 h, 1 μg/mL): 0.886
- Adjusted CE0 (TK6 cells [8]; 24 h, 2 μg/mL): 8.3%
- Adjusted CE0(%) (TK6 cells [8]; 24 h, 2 μg/mL): 42.0%
- CE0 (TK6 cells [8]; 24 h, 2 μg/mL): 14.6%
- CE0 (%) (TK6 cells [8]; 24 h, 2 μg/mL): 21.6%
- CE3 (%) (TK6 cells [8]; 24 h, 2 μg/mL): 81.6%
- RS (TK6 cells [8]; 24 h, 2 μg/mL): 12.2
- RS0 (TK6 cells [8]; 24 h, 2 μg/mL): 12.2%
- RS0 (%) (TK6 cells [8]; 24 h, 2 μg/mL): 18.7%
- Mut. freq. T-MF (MF) ([5]; human, 4 h, 3 μg/mL): 23.9 ×10-6
- MF ([5]; human, 4 h, 5 μg/mL): 71.7
- Mut. freq. N-MF ([5]; human, 4 h, 5 μg/mL): 29.3 ×10-6
- Mut. freq. S-MF ([5]; human, 4 h, 5 μg/mL): 42.3 ×10-6
- Mut. freq. T-MF ([5]; human, 4 h, 5 μg/mL): 71.7 ×10-6
- %SG ([5]; human, 24 h, 1 μg/mL): 59.3%
- Mut. freq. (×10-6) N-MF ([5]; human, 24 h, 1 μg/mL): 14.0 ×10-6
- Mut. freq. (×10-6) S-MF ([5]; human, 24 h, 1 μg/mL): 20.5 ×10-6
- Mut. freq. (×10-6) T-MF ([5]; human, 24 h, 1 μg/mL): 34.5 ×10-6
- MF ([5]; human, 24 h, 2 μg/mL): 86.4
- Mut. freq. (×10-6) N-MF ([5]; human, 24 h, 2 μg/mL): 25.3 ×10-6
- Mut. freq. (×10-6) S-MF ([5]; human, 24 h, 2 μg/mL): 39.7 ×10-6
- Mut. freq. (×10-6) T-MF ([5]; human, 24 h, 2 μg/mL): 65.0 ×10-6
- Mut. freq. N-MF ([5]; human, 24 h, 2 μg/mL): 51.4 ×10-6
- Mut. freq. S-MF ([5]; human, 24 h, 2 μg/mL): 34.9 ×10-6
- Mut. freq. T-MF ([5]; human, 24 h, 2 μg/mL): 86.4 ×10-6
